Laboratory results from ChEMBL document CHEMBL4665799, “Synthesis and biological evaluation of diaryl urea derivatives as FLT3 inhibitors” (Bioorg Med Chem Lett, 2020).

Tests used:
[1] = test system: Receptor-type tyrosine-protein kinase FLT3 (Homo sapiens), P36888 [UNDEFINED MUTATION]; conditions: dose 500.0 nM
Description: Inhibition of FLT3 ITD mutant (unknown origin) at 500 nM relative to control

MV4-11 [2] = test: cells; conditions: Homo sapiens
Description: Antiproliferative activity against human MV4-11 cells assessed as reduction in cell viability

MV4-11 [3] = test: Potency index, ratio of quizartinib IC50 to test compound IC50 for antiproliferative activity against human MV4-11 cells assessed as reduction in cell viability; assay type: functional
[4] = molecular target: Receptor-type tyrosine-protein kinase FLT3 (Homo sapiens, UniProt P36888, ITD)
Sequence of Receptor-type tyrosine-protein kinase FLT3 (P36888 whole entry, looked up, change not shown): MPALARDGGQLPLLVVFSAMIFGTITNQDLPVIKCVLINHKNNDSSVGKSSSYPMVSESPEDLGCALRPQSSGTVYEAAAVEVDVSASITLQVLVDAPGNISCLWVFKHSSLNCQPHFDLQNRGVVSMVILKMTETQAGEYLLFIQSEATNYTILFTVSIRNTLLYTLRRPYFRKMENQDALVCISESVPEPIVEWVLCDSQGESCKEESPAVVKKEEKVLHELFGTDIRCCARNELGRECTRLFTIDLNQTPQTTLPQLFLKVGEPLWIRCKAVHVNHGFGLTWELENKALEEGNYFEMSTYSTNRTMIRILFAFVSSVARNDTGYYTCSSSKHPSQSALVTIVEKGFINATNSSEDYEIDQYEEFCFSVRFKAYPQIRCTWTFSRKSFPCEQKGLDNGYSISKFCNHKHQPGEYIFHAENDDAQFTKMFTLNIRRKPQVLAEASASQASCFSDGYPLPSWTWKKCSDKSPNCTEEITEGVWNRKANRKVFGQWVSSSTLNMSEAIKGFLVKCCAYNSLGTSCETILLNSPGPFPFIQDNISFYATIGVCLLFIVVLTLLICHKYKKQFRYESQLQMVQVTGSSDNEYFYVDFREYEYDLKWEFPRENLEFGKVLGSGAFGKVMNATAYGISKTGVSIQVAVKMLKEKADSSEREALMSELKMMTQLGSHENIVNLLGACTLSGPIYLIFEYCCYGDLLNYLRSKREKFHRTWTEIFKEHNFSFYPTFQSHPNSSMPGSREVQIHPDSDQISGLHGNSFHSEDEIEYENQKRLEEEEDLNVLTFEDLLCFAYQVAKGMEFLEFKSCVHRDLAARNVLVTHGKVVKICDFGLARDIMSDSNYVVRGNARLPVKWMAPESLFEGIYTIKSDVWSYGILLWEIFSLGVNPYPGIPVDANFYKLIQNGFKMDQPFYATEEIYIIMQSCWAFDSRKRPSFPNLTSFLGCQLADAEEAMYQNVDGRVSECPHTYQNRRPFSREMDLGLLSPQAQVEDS
Description: Inhibition of FLT3 ITD mutant (unknown origin)

Sequence of Receptor-type tyrosine-protein kinase FLT3 (Homo sapiens), P36888 [UNDEFINED MUTATION] (P36888 whole entry, looked up, change not shown): as above

## Cc1cc(NC(=O)Nc2ccc(CC(=O)Nc3ccc(-c4cn5c(n4)sc4cc(OCCN6CCOCC6)ccc45)cc3)cc2)on1
[1]
  inhibition: 45.9%

## CC(C)(C)c1cc(NC(=O)Nc2ccc(-c3cn4c(n3)sc3cc(OCCN5CCOCC5)ccc34)cc2)on1
[1]
  inhibition: 99.6%
MV4-11 [2]
  IC50: 0.176 nM
MV4-11 [3]
  Ratio IC50: 4.75
[4]
  IC50: 5.6 nM

## COc1ccc2c(c1)sc1nc(-c3ccc(NC(=O)Nc4cc(C(C)(C)C)no4)cc3)cn12
[1]
  inhibition: 97.2%
MV4-11 [2]
  IC50: 1.97 nM
[4]
  IC50: 20.5 nM

## CC(C)(C)c1cc(NC(=O)Nc2ccc(C(=O)Nc3ccc(-c4cn5c(n4)sc4cc(OCCN6CCOCC6)ccc45)cc3)cc2)no1
[1]
  inhibition: 35%

## Cc1cc(NC(=O)Nc2ccc(-c3cn4c(n3)sc3cc(OCCN5CCOCC5)ccc34)cc2)no1
[1]
  inhibition: 79.9%

## CC(C)(C)c1cc(NC(=O)Nc2ccc(C(=O)Nc3ccc(-c4cn5c(n4)sc4cc(OCCN6CCOCC6)ccc45)cc3)cc2)on1
[1]
  inhibition: 41.9%

## COc1ccc2nc(NC(=O)Cc3ccc(NC(=O)Nc4cc(C(C)(C)C)no4)cc3)sc2c1
[1]
  inhibition: 6.4%

## CC(C)(C)c1cc(NC(=O)Nc2ccc(CC(=O)Nc3ccc(-c4cn5c(n4)sc4cc(OCCN6CCOCC6)ccc45)cc3)cc2)no1
[1]
  inhibition: 36%

## Cc1cc(NC(=O)Nc2ccc(-c3cn4c(n3)sc3cc(OCCN5CCOCC5)ccc34)cc2)on1
[1]
  inhibition: 66.7%
MV4-11 [2]
  IC50: 33.1 nM
[4]
  IC50: 157 nM

## Cc1cc(NC(=O)Nc2ccc3c(c2)sc2nc(-c4ccc(OCCN5CCOCC5)cc4)cn23)on1
[1]
  inhibition: 76.9%
MV4-11 [2]
  IC50: 88.7 nM
[4]
  IC50: 109 nM

## COc1ccc2c(c1)sc1nc(-c3ccc(NC(=O)Nc4cc(C)on4)cc3)cn12
[1]
  inhibition: 67.3%

## COc1ccc2c(c1)sc1nc(-c3ccc(NC(=O)Nc4cc(C)no4)cc3)cn12
[1]
  inhibition: 52.6%

## Cc1cc(NC(=O)Nc2ccc(CC(=O)Nc3ccc(-c4cn5c(n4)sc4cc(OCCN6CCOCC6)ccc45)cc3)cc2)no1
[1]
  inhibition: 35.8%

## CC(C)(C)c1cc(NC(=O)Nc2ccc(CC(=O)Nc3ccc(-c4cn5c(n4)sc4cc(OCCN6CCOCC6)ccc45)cc3)cc2)on1
[1]
  inhibition: 38.5%

## COc1ccc2nc(NC(=O)Cc3ccc(NC(=O)Nc4cc(C)on4)cc3)sc2c1
[1]
  inhibition: -2%

## CC(C)(C)c1cc(NC(=O)Nc2ccc3c(c2)sc2nc(-c4ccc(OCCN5CCOCC5)cc4)cn23)no1
[1]
  inhibition: 98.8%
MV4-11 [2]
  IC50: 0.782 nM
[4]
  IC50: 8.25 nM

## COc1ccc2nc(NC(=O)Cc3ccc(NC(=O)Nc4cc(C)no4)cc3)sc2c1
[1]
  inhibition: 4.5%

## Cc1cc(NC(=O)Nc2ccc(C(=O)Nc3ccc(-c4cn5c(n4)sc4cc(OCCN6CCOCC6)ccc45)cc3)cc2)on1
[1]
  inhibition: 28.1%

## CC(C)(C)c1cc(NC(=O)Nc2ccc3c(c2)sc2nc(-c4ccc(OCCN5CCOCC5)cc4)cn23)on1
[1]
  inhibition: 99.3%
MV4-11 [2]
  IC50: 0.614 nM
[4]
  IC50: 6.83 nM

## Cc1cc(NC(=O)Nc2ccc(C(=O)Nc3ccc(-c4cn5c(n4)sc4cc(OCCN6CCOCC6)ccc45)cc3)cc2)no1
[1]
  inhibition: 29%

## Cc1cc(NC(=O)Nc2ccc3c(c2)sc2nc(-c4ccc(OCCN5CCOCC5)cc4)cn23)no1
[1]
  inhibition: 82.5%
MV4-11 [2]
  IC50: 39.9 nM
[4]
  IC50: 82.6 nM

## COc1ccc2nc(NC(=O)Cc3ccc(NC(=O)Nc4cc(C(C)(C)C)on4)cc3)sc2c1
[1]
  inhibition: 2.5%
